According to patent US10011602B2, “Immunological reagents and uses therefor” (THE UNIVERSITY OF MELBOURNE, priority 2012, dated 2018):

Target: T1, MR1 (Homo sapiens, UniProt Q95460)
T1 construct: soluble human MR1 (residues 1-270 of the mature, leaderless protein); made in house
Experiment: Refolding of denatured MR1 and β2m with ligands
Assay type: binding
Conditions: substance added to MR1/β2m refold
Procedure: Genes encoding soluble human MR1 (residues 1-270 of the mature, leaderless protein, lacking the transmembrane and cytoplasmic domains); or human β2m (mature, leaderless protein) were expressed for four hours in BL21 E. coli following induction with 1 mM isopropyl β-D-1-thiogalactopyranoside. E. coli were pelleted and resuspended in a buffer containing 50 mM Tris, 25% (w/v) sucrose, 1 mM EDTA, 10 mM DTT pH 8.0. Inclusion body protein was then extracted by lysis of bacteria in a buffer containing 50 mM Tris pH 8.0, 1% (w/v) Triton X-100, 1% (w/v) sodium deoxycholate, 100 mM NaCl, 10 mM DTT, 5 mM MgCl2, and 1 mg DnaseI per liter of starting culture; and subsequent steps involved homogenization with a polytron homogenizer, centrifugation, and washing inclusion body protein sequentially with firstly a buffer containing 50 mM Tris pH 8, […], 100 mM NaCl, 1 mM EDTA, 1 mM DTT, and secondly a buffer containing 50 mM Tris pH 8.0, 1 mM EDTA, 1 mM DTT. Inclusion body protein was then resuspended in a buffer containing 20 mM Tris pH 8.0, 8 M urea, 0.5 mM EDTA, 1 mM DTT, and following centrifugation the supernatant containing solubilized, denatured inclusion body protein was collected and stored at −80° C.
2 mg of 6-formyl pterin, 56 mg of denatured inclusion body MR1 protein, and 28 mg of β2m protein were added to a 400 ml refold buffer solution containing 0.1 M Tris pH 8.5, 2 mM EDTA, 0.4 M arginine, 0.5 mM oxidized glutathione, 5 mM reduced glutathione. Variably, 5M urea was either present or absent. Following an overnight incubation at 4° C., the refold buffer was dialysed against 3 changes of buffer containing 10 mM Tris, pH8.0 over a period of 24 hours. Refolded MR1-β2m-ligand complex was then purified by sequential DEAE (GE Healthcare) anion exchange, S75 16/60 (GE Healthcare) gel filtration, and MonoQ (GE Healthcare) anion exchange chromatography.

Ability to refold MR1 into native MR1-β2m complex: could be refolded with MR1
Structure (SMILES): Cc1nc2c(=O)[nH]c(=O)nc-2n(C[C@H](O)[C@H](O)[C@H](O)CO)c1C [Compound 1, 6,7-dimethyl-8-D-ribityllumazine]
